Data from article PMC11992225, “Antibacterial compounds against non-growing and intracellular bacteria” (npj Antimicrobials and Resistance, 2025).
Values after ≈ are worked out from the molar mass of the structure shown. Read-outs that look alike come from different tables or passages of the source.

Key:
S. aureus DSM2569 = assay: MIC, standard microdilution assay, growing S. aureus; type: cell-based, Staphylococcus aureus; details: S. aureus; CA-MHB pH 7.4; read-out: MIC (μM) CA-MHB
Method in brief: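 MICs come from microdilution in CA-MHB/40 mM HEPES pH 7.4 for the UPEC, Pseudomonas and Staphylococcus strains, and in TSB for Shigella. UPEC also tested in LPM/30 mM MES pH 5.5.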

non-growing UPEC CFT073 [1] = assay: Dilution-regrowth assay (screen, hit validation, dose-response) on stationary-phase UPEC; type: cell-based, Escherichia coli; details: E. coli, regrowth delay of non-growing bacteria, 24 h treatment, OD600 6 h after 2500-fold dilution, read-out: EC50
Method in brief: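 Regrowth (OD600 after 6 h, 37 °C) of diluted non-growing CFT073, following 24 h compound treatment of 24 h stationary cultures, defines activity relative to untreated control. Screen at 20 µM, validation at 20, 10, 5 µM (duplicates), dose–response in three biological replicates fitted by five-parameter logistic.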

non-growing UPEC CFT073 [2] = assay: Dose-dependent killing analysis (CFU spot-plating) of stationary-phase UPEC; type: cell-based, Escherichia coli;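 as to average Δlog10(CFU/ml) (killing): drug concentration in µM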
Method in brief: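 Killing assessed by CFU counts: overnight 37 °C LB agar spot plates (10 μl drops of 10-fold PBS dilutions) scored at the lowest dilution with distinct colonies. Samples were compound-treated non-growing UPEC CFT073, 200 μl per well. Performed as three biological replicates.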

[3] = test system: non-growing S. aureus DSM2569; assay: Dose-dependent killing analysis (CFU spot-plating) of stationary-phase S. aureus;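 as to average Δlog10(CFU/ml) (killing): drug concentration in µM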; type: cell-based, Staphylococcus aureus; details: S. aureus; for average Δlog10(CFU/ml) (killing): vs 9,097 before treatment
Method in brief: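 Survival was scored as CFU after overnight growth at 37 °C on LB agar, using spots from 10-fold PBS dilutions of treated cultures. Non-growing S. aureus DSM2569 had been exposed to compound for 24 h in 1:4 CA-MHB, pH 7.4. Three biological replicates were run.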

[4] = E. coli in 1:4 CA-MHB (pH 7.4), drug conc. 0.25
[5] = E. coli in 1:4 CA-MHB (pH 7.4), drug conc. 0.5
[6] = E. coli in 1:4 CA-MHB (pH 7.4), drug conc. 1
[7] = E. coli in 1:4 CA-MHB (pH 7.4), drug conc. 2.5
[8] = E. coli in 1:4 CA-MHB (pH 7.4), drug conc. 5
[9] = E. coli in 1:4 CA-MHB (pH 7.4), drug conc. 10
[10] = E. coli in LPM (pH 5.5), drug conc. 0.25
[11] = E. coli in LPM (pH 5.5), drug conc. 0.5
[12] = E. coli in LPM (pH 5.5), drug conc. 1
[13] = E. coli in LPM (pH 5.5), drug conc. 2.5
[14] = E. coli in LPM (pH 5.5), drug conc. 5
[15] = E. coli in LPM (pH 5.5), drug conc. 10

N#Cc1c(N2C[C@@H]3NCCO[C@H]3C2)c(F)cc2c(=O)c(C(=O)O)cn(C3CC3)c12 [Finafloxacin]
MIC (S. aureus DSM2569): 0.5 µM (≈ 0.199 µg/mL) | EC50 (non-growing UPEC CFT073 [1]; LPM pH 5.5): 13.6 µM | EC50 (non-growing UPEC CFT073 [1]; pH 7.4, 1:4 CA-MHB): 7.19 µM | bactericidal effect against stationary-phase UPEC cultures (non-growing UPEC CFT073 [2]; 20 µM, preliminary experiments): bactericidal effects | log10(CFU/ml) after treatment, replicate 1 (non-growing UPEC CFT073 [2]; [4]): 9.322 log10(CFU/ml) | log10(CFU/ml) after treatment, replicate 2 (non-growing UPEC CFT073 [2]; [4]): 8.602 log10(CFU/ml) | log10(CFU/ml) after treatment, replicate 3 (non-growing UPEC CFT073 [2]; [4]): 8.301 log10(CFU/ml) | average Δlog10(CFU/ml) (killing) (non-growing UPEC CFT073 [2]; E. coli in 1:4 CA-MHB (pH 7.4), drug conc. 0.25, vs 8.977 before treatment): 0.236 log10(CFU/ml) | log10(CFU/ml) after treatment, replicate 1 (non-growing UPEC CFT073 [2]; [5]): 9.255 log10(CFU/ml) | log10(CFU/ml) after treatment, replicate 2 (non-growing UPEC CFT073 [2]; [5]): 8.903 log10(CFU/ml) | log10(CFU/ml) after treatment, replicate 3 (non-growing UPEC CFT073 [2]; [5]): 8.845 log10(CFU/ml) | average Δlog10(CFU/ml) (killing) (non-growing UPEC CFT073 [2]; E. coli in 1:4 CA-MHB (pH 7.4), drug conc. 0.5, vs 8.977 before treatment): -0.024 log10(CFU/ml) | log10(CFU/ml) after treatment, replicate 1 (non-growing UPEC CFT073 [2]; [6]): 9.322 log10(CFU/ml) | log10(CFU/ml) after treatment, replicate 2 (non-growing UPEC CFT073 [2]; [6]): 8.845 log10(CFU/ml) | log10(CFU/ml) after treatment, replicate 3 (non-growing UPEC CFT073 [2]; [6]): 8.699 log10(CFU/ml) | average Δlog10(CFU/ml) (killing) (non-growing UPEC CFT073 [2]; E. coli in 1:4 CA-MHB (pH 7.4), drug conc. 1, vs 8.977 before treatment): 0.022 log10(CFU/ml) | log10(CFU/ml) after treatment, replicate 1 (non-growing UPEC CFT073 [2]; [7]): 9.176 log10(CFU/ml) | log10(CFU/ml) after treatment, replicate 2 (non-growing UPEC CFT073 [2]; [7]): 9.041 log10(CFU/ml) | log10(CFU/ml) after treatment, replicate 3 (non-growing UPEC CFT073 [2]; [7]): 8.230 log10(CFU/ml) | average Δlog10(CFU/ml) (killing) (non-growing UPEC CFT073 [2]; E. coli in 1:4 CA-MHB (pH 7.4), drug conc. 2.5, vs 8.977 before treatment): 0.161 log10(CFU/ml) | log10(CFU/ml) after treatment, replicate 1 (non-growing UPEC CFT073 [2]; [8]): 8.362 log10(CFU/ml) | log10(CFU/ml) after treatment, replicate 2 (non-growing UPEC CFT073 [2]; [8]): 8.230 log10(CFU/ml) | log10(CFU/ml) after treatment, replicate 3 (non-growing UPEC CFT073 [2]; [8]): 8.000 log10(CFU/ml) | average Δlog10(CFU/ml) (killing) (non-growing UPEC CFT073 [2]; E. coli in 1:4 CA-MHB (pH 7.4), drug conc. 5, vs 8.977 before treatment): 0.780 log10(CFU/ml) | log10(CFU/ml) after treatment, replicate 1 (non-growing UPEC CFT073 [2]; [9]): 7.491 log10(CFU/ml) | log10(CFU/ml) after treatment, replicate 2 (non-growing UPEC CFT073 [2]; [9]): 7.954 log10(CFU/ml) | log10(CFU/ml) after treatment, replicate 3 (non-growing UPEC CFT073 [2]; [9]): 8.079 log10(CFU/ml) | average Δlog10(CFU/ml) (killing) (non-growing UPEC CFT073 [2]; E. coli in 1:4 CA-MHB (pH 7.4), drug conc. 10, vs 8.977 before treatment): 1.136 log10(CFU/ml) | log10(CFU/ml) after treatment, replicate 1 (non-growing UPEC CFT073 [2]; [10]): 7.114 log10(CFU/ml) | log10(CFU/ml) after treatment, replicate 2 (non-growing UPEC CFT073 [2]; [10]): 6.230 log10(CFU/ml) | log10(CFU/ml) after treatment, replicate 3 (non-growing UPEC CFT073 [2]; [10]): 8.000 log10(CFU/ml) | average Δlog10(CFU/ml) (killing) (non-growing UPEC CFT073 [2]; E. coli in LPM (pH 5.5), drug conc. 0.25, vs 7.350 before treatment): 0.236 log10(CFU/ml) | log10(CFU/ml) after treatment, replicate 1 (non-growing UPEC CFT073 [2]; [11]): 7.114 log10(CFU/ml) | log10(CFU/ml) after treatment, replicate 2 (non-growing UPEC CFT073 [2]; [11]): 6.447 log10(CFU/ml) | log10(CFU/ml) after treatment, replicate 3 (non-growing UPEC CFT073 [2]; [11]): 7.699 log10(CFU/ml) | average Δlog10(CFU/ml) (killing) (non-growing UPEC CFT073 [2]; E. coli in LPM (pH 5.5), drug conc. 0.5, vs 7.350 before treatment): 0.264 log10(CFU/ml) | log10(CFU/ml) after treatment, replicate 1 (non-growing UPEC CFT073 [2]; [12]): 6.845 log10(CFU/ml) | log10(CFU/ml) after treatment, replicate 2 (non-growing UPEC CFT073 [2]; [12]): 6.342 log10(CFU/ml) | log10(CFU/ml) after treatment, replicate 3 (non-growing UPEC CFT073 [2]; [12]): 7.204 log10(CFU/ml) | average Δlog10(CFU/ml) (killing) (non-growing UPEC CFT073 [2]; E. coli in LPM (pH 5.5), drug conc. 1, vs 7.350 before treatment): 0.553 log10(CFU/ml) | log10(CFU/ml) after treatment, replicate 1 (non-growing UPEC CFT073 [2]; [13]): 6.301 log10(CFU/ml) | log10(CFU/ml) after treatment, replicate 2 (non-growing UPEC CFT073 [2]; [13]): 6.699 log10(CFU/ml) | log10(CFU/ml) after treatment, replicate 3 (non-growing UPEC CFT073 [2]; [13]): 6.580 log10(CFU/ml) | average Δlog10(CFU/ml) (killing) (non-growing UPEC CFT073 [2]; E. coli in LPM (pH 5.5), drug conc. 2.5, vs 7.350 before treatment): 0.824 log10(CFU/ml) | log10(CFU/ml) after treatment, replicate 1 (non-growing UPEC CFT073 [2]; [14]): 6.000 log10(CFU/ml) | log10(CFU/ml) after treatment, replicate 2 (non-growing UPEC CFT073 [2]; [14]): 6.301 log10(CFU/ml) | log10(CFU/ml) after treatment, replicate 3 (non-growing UPEC CFT073 [2]; [14]): 5.903 log10(CFU/ml) | average Δlog10(CFU/ml) (killing) (non-growing UPEC CFT073 [2]; E. coli in LPM (pH 5.5), drug conc. 5, vs 7.350 before treatment): 1.282 log10(CFU/ml) | log10(CFU/ml) after treatment, replicate 1 (non-growing UPEC CFT073 [2]; [15]): 6.146 log10(CFU/ml) | log10(CFU/ml) after treatment, replicate 2 (non-growing UPEC CFT073 [2]; [15]): 6.114 log10(CFU/ml) | log10(CFU/ml) after treatment, replicate 3 (non-growing UPEC CFT073 [2]; [15]): 5.544 log10(CFU/ml) | average Δlog10(CFU/ml) (killing) (non-growing UPEC CFT073 [2]; E. coli in LPM (pH 5.5), drug conc. 10, vs 7.350 before treatment): 1.416 log10(CFU/ml) | log10(CFU/ml) after treatment, replicate 1 ([3]; drug conc. 0.1): 8.820 log10(CFU/ml) | log10(CFU/ml) after treatment, replicate 2 ([3]; drug conc. 0.1): 9.041 log10(CFU/ml) | log10(CFU/ml) after treatment, replicate 3 ([3]; drug conc. 0.1): 8.982 log10(CFU/ml) | average Δlog10(CFU/ml) (killing) ([3]; drug conc. 0.1): 0.149 log10(CFU/ml) | log10(CFU/ml) after treatment, replicate 1 ([3]; drug conc. 0.5): 8.857 log10(CFU/ml) | log10(CFU/ml) after treatment, replicate 2 ([3]; drug conc. 0.5): 9.176 log10(CFU/ml) | log10(CFU/ml) after treatment, replicate 3 ([3]; drug conc. 0.5): 9.090 log10(CFU/ml) | average Δlog10(CFU/ml) (killing) ([3]; drug conc. 0.5): 0.056 log10(CFU/ml) | log10(CFU/ml) after treatment, replicate 1 ([3]; drug conc. 2.5): 8.820 log10(CFU/ml) | log10(CFU/ml) after treatment, replicate 2 ([3]; drug conc. 2.5): 8.954 log10(CFU/ml) | log10(CFU/ml) after treatment, replicate 3 ([3]; drug conc. 2.5): 8.820 log10(CFU/ml) | average Δlog10(CFU/ml) (killing) ([3]; drug conc. 2.5): 0.233 log10(CFU/ml) | log10(CFU/ml) after treatment, replicate 1 ([3]; drug conc. 10): 8.633 log10(CFU/ml) | log10(CFU/ml) after treatment, replicate 2 ([3]; drug conc. 10): 8.996 log10(CFU/ml) | log10(CFU/ml) after treatment, replicate 3 ([3]; drug conc. 10): 8.623 log10(CFU/ml) | average Δlog10(CFU/ml) (killing) ([3]; drug conc. 10): 0.346 log10(CFU/ml)
